# Test results taken from article PMC10067601, “Identification of a peptide ligand for human ALDH3A1 through peptide phage display: Prediction and characterization of protein interaction sites and inhibition of ALDH3A1 enzymatic activity” (Frontiers in Molecular Biosciences, 2023).
# Entries after “also recorded” stand apart in the source; their conditions may differ.
# Molecular target: T1, human recombinant ALDH3A1 (Homo sapiens, UniProt P30838)
# T1 construct: 6xHis (C); made in house; host or cells: E. coli, with chaperone co-expression (pG-KJE8 plasmid)
# T1 sequence (P30838 1-453): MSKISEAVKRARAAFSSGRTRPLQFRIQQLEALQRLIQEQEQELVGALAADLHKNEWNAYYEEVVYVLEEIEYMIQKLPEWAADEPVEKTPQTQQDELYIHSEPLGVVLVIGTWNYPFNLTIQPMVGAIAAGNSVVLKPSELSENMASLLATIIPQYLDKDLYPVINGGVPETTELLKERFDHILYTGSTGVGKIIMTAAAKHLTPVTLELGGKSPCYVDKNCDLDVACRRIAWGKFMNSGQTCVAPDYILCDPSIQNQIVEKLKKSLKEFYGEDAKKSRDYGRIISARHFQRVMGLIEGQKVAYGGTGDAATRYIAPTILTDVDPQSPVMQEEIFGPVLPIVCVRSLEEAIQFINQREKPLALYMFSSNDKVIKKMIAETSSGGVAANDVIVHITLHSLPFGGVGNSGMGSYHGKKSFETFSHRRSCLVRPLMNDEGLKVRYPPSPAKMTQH
# Experiment: Peptide ELISA, P1 coated, serially diluted ALDH3A1
# Type: binding
# Description: An ELISA with the synthetic peptide P1 was performed as described ([Thermo Scientific, 2010]). P1 (50 μg/mL) diluted in Coating Buffer (0.2 M sodium carbonate/bicarbonate, pH 9.4) was coated overnight at 4°C under agitation. After three washes with TBST (25 mM Tris, 0.15 M sodium chloride, pH 7.2 containing 0.1% Tween 20), the wells were blocked with 300 μL per well with Blocking Buffer (TBST containing 4% w/v BSA) overnight at 4°C under agitation. After another three washes with TBST, 100 μL of 2-fold serial dilutions of ALDH3A1 in Blocking Buffer were added in each well and the plate was incubated for 1 h at RT under gentle agitation. Following four washes with TBST, 100 μL of rabbit anti-ALDH3A1 antibody, diluted 1:1,000 in Blocking Buffer, were added and the plate was incubated for 2 h at RT under gentle agitation. After the plate was washed 4 times with TBST, it was incubated with 100 μL of anti-rabbit IgG horseradish-peroxidase conjugated and diluted 1:5,000 in Blocking Buffer, for 2 h at RT. Then, the plate was washed 6 times with TBST, and 100 μL of ABTS [2,2′-azino-bis(3-ethylbenzothiazoline-6-sulfonic acid)] solution (ready-to-use) were added. After 1 h of incubation in darkness at RT under agitation, the plate was measured at 405 nm, with wavelength correction at 650 nm, using an ELISA plate reader (EnSpire Multimode Plate Reader, Perkin Elmer, Waltham, MA, United States). During wash steps, liquids were dispersed in the sink, the plate was tapped vigorously on a paper towel, refilled with Wash Buffer, and incubated for 5 min at RT under agitation.
# Next, peptide ELISA was performed to test whether the synthetic peptide P1 interacts with the hALDH3A1 protein. Specifically, P1 was coated in abundance in a 96-well plate and subsequently, hALDH3A1 was added to each well in serial dilutions. For detecting the putative peptide/ALDH3A1 interaction a rabbit anti-ALDH3A1 antibody along with a secondary horseradish peroxidase-conjugated anti-rabbit antibody were used in a sandwich ELISA. In each step, the excessive, unbound ALDH3A1 or antibody was removed through repetitive washes, while a ready-to-use ABTS solution was used as a colorimetric substrate for detecting the presence of horseradish peroxidase activity.
# [1] = X is log(dilution of ALDH3A1), P1 50 μg/ml coated
sequence,measurement,setting,value
"WPTYVSPFRSPP [P1, …, prevailing 12-mer phage display peptide, synthesised by Genecust]","Bottom, 95% CI (profile likelihood)","4PL fit, P1 50 μg/ml coated","-0,6000 to 0,3171"
same,"HillSlope, 95% CI (profile likelihood)","4PL fit, P1 50 μg/ml coated","0,7500 to 2,101"
same,"LogIC50, 95% CI (profile likelihood)","4PL fit, P1 50 μg/ml coated","-2,813 to -1,638"
same,R squared (4PL fit),"4PL fit, P1 50 μg/ml coated",0.9777
same,"Top, 95% CI (profile likelihood)","4PL fit, P1 50 μg/ml coated","0,5633 to 0,6007"
same,Binding of P1 to ALDH3A1,"P1 50 μg/mL coated, 2-fold serial dilutions of ALDH3A1, 405 nm-650 nm","ALDH3A1 dose-dependent increase in absorbance was observed, indicating the specific binding of P1 to ALDH3A1; also recorded: confirmed the interaction of ALDH3A1 with the synthetic peptide P1 in a concentration-dependent manner"
same,Bottom (4PL fit),"Sigmoidal, 4PL, X is log(dilution of ALDH3A1), P1 50 μg/ml coated",0.2386
same,Top (4PL fit),"Sigmoidal, 4PL, X is log(dilution of ALDH3A1), P1 50 μg/ml coated, OD 405nm - 650nm",0.5773
same,HillSlope (4PL fit),[1],1.408
same,LogIC50 (4PL fit),[1],-1.813
same,Span (4PL fit),[1],0.3387
